Here are results for 4 molecules from patent US7612200B2, “Inhibitors of protein kinases” (Locus Pharmaceuticals, Inc., priority 2004, dated 2009).

In one assay the test system is MCF-7. The assay can be described thus: Cell growth inhibition, MCF-7. Conditions: Homo sapiens, MCF7; MCF-7 cell line; 24 hours; viability by WST-1 or Alamar Blue. Format: cell-based. On the procedure:
(§1) The compounds of Examples 1 and 2 were also tested for cell growth inhibition activity a gains two cell lines, MCF-7 and U266. […], suspended in RPMI 1640 media, supplemented with 10% FBS, were pipetted into 96-well plates at a density of 10,000 cells per milliliter in a volume of […] per well. Cells were allowed to equilibrate overnight at 37 C in 5% CO2. Cells were then incubated in the presence of the test compound at a concentrations ranging from 0.03 μM to 10 μM (at ½ log dilutions) for 24 hours. After the incubation period, cells were assessed for viability using either WST-1 (Biovision) or Alamar Blue (BioSourse). Values from treated cells were compared to values from control cells and values expressed as percent control.
Background: Tetrazolium assays rely on reduction of a dye to a coloured formazan, in cell work by metabolically active cells.

A further assay concerns the target GSK3-beta (Homo sapiens, UniProt P49841). The assay can be described thus: Kinase activity at ATP Km,app, GSK3-beta. Format: biochemical. Particulars: 40 min, compound 2 μM. On the procedure:
GSK3β Kinase Activity: In a final reaction volume of 25 μl, GSK3β (h) (5-10 mU) is incubated with […] MOPS pH 7.0, 0.2 mM EDTA, […](p)EDEEE (phosphor GS2 peptide), 10 mM MgAcetate and [γ-^33P-ATP] (specific activity approx. 500 cpm/pmol, concentration as required). The reaction is initiated by the addition of the MgATP mix. After incubation for 40 minutes at room temperature, the reaction is stopped by the addition of 5 μl of a 3% phosphoric acid solution. 10 μl of the reaction is then spotted onto a P30 filtermat and washed three times for 5 minutes in 50 mM phosphoric acid and once in methanol prior to drying and scintillation counting.

The next assay concerns the target c-MET (Homo sapiens, UniProt P08581). The assay can be described thus: Kinase activity at ATP Km,app, c-MET. Particulars: compound 2 μM. Format: biochemical. On the procedure:
(§2) Met Kinase Activity: In a final reaction volume of 25 μl, Met (h) (5-10 mU) is incubated with 8 mM MOPS pH 7.0, 0.2 mM EDTA, 250 μM KKKSPEGYVNIEFG, 10 mM MgAcetate and [γ-^33P-ATP] (specific activity approx. 500 cpm/pmol, concentration as required). The reaction is initiated by the addition of the MgATP mix. After incubation for 40 minutes at room temperature, the reaction is stopped by the addition of 5 μl of a 3% phosphoric acid solution. 10 μl of the reaction is then spotted onto a P30 filtermat and washed three times for 5 minutes in 75 mM phosphoric acid and once in methanol prior to drying and scintillation counting.

A further assay concerns U266. The assay can be described thus: Cell growth inhibition, U266. Format: cell-based. Particulars: Homo sapiens, U-266; U266 cell line; 24 hours; viability by WST-1 or Alamar Blue. On the procedure:
as §1

A further assay has as its target T1, Flt3 (Homo sapiens, UniProt P36888).
T1 sequence (P36888 27-993): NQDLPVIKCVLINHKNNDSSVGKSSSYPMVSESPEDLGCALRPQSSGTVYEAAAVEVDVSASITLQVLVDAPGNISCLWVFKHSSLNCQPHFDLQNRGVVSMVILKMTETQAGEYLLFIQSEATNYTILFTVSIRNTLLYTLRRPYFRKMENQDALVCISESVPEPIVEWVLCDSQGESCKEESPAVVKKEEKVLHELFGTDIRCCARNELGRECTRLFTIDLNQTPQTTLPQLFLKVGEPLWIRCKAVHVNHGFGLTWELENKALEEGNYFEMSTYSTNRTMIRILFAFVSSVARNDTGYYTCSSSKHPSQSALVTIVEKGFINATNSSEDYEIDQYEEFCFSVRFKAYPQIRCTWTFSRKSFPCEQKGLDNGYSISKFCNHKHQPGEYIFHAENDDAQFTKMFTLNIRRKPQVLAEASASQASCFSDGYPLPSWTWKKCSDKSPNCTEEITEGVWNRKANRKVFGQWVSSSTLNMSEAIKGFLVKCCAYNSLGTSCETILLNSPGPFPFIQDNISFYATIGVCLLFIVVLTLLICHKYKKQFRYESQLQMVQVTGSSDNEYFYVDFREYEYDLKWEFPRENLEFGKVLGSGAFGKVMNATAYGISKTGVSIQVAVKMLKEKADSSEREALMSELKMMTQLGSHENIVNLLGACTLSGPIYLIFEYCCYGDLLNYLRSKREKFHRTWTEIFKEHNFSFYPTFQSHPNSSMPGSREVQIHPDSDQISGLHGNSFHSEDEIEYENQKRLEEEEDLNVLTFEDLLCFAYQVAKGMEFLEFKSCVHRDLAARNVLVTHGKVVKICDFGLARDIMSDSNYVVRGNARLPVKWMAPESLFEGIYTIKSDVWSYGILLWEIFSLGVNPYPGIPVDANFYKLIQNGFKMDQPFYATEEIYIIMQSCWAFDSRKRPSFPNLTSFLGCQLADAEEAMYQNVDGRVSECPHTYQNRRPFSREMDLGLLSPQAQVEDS
The assay can be described thus: Kinase activity at ATP Km,app, Flt3. Format: biochemical. Conditions: 40 min, compound 2 μM. On the procedure:
as §2, with “Flt3 Kinase Activity:” for “Met Kinase Activity:”, “25 μl, Flt3 (h) (5-10” for “25 μl, Met (h) (5-10”, “mM EDTA, 50 μM EAIYAAPFAKKK,” for “mM EDTA, 250 μM KKKSPEGYVNIEFG,”, “50 μM EAIYAAPFAKKK, 10 mM” for “250 μM KKKSPEGYVNIEFG, 10 mM”, “of […] of a” for “of 5 μl of a”, “solution. […] of the” for “solution. 10 μl of the”

For a further assay, the target named is Akt1 (Homo sapiens, UniProt P31749). The assay can be described thus: Kinase activity at ATP Km,app, Akt1. Format: biochemical. Conditions: compound 2 μM.
The target in a further assay is Lck (Homo sapiens, UniProt P06239). Nature of the assay: Lck Kinase Activity. Format: biochemical. As to the method: Lck Kinase Activity: In a final reaction volume of […], Lck (h) (5-10 mU) is incubated with 50 mM Tris pH 7.5, 0.1 mM EGTA, 0.1 mM Na3VO4, 250 μM KVEKIGEGTYGVVYK (Cdc2 peptide), 10 mM MgAcetate and [γ-^33P-ATP] (specific activity approx. 500 cpm/pmol, concentration as required). The reaction is initiated by the addition of the MgATP mix. After incubation for 40 minutes at room temperature, the reaction is stopped by the addition of 5 μl of a 3% phosphoric acid solution. 10 μl of the reaction is then spotted onto a P30 filtermat and washed three times for 5 minutes in 75 mM phosphoric acid and once in methanol prior to drying and scintillation counting.

A further assay has as its target EphA1 (Homo sapiens, UniProt P21709). The assay can be described thus: Protein kinase inhibition, EphA1. Format: biochemical. Conditions: Rate (μM) 2, read-out: % Control.

c-MET, sequence (P08581 25-1390): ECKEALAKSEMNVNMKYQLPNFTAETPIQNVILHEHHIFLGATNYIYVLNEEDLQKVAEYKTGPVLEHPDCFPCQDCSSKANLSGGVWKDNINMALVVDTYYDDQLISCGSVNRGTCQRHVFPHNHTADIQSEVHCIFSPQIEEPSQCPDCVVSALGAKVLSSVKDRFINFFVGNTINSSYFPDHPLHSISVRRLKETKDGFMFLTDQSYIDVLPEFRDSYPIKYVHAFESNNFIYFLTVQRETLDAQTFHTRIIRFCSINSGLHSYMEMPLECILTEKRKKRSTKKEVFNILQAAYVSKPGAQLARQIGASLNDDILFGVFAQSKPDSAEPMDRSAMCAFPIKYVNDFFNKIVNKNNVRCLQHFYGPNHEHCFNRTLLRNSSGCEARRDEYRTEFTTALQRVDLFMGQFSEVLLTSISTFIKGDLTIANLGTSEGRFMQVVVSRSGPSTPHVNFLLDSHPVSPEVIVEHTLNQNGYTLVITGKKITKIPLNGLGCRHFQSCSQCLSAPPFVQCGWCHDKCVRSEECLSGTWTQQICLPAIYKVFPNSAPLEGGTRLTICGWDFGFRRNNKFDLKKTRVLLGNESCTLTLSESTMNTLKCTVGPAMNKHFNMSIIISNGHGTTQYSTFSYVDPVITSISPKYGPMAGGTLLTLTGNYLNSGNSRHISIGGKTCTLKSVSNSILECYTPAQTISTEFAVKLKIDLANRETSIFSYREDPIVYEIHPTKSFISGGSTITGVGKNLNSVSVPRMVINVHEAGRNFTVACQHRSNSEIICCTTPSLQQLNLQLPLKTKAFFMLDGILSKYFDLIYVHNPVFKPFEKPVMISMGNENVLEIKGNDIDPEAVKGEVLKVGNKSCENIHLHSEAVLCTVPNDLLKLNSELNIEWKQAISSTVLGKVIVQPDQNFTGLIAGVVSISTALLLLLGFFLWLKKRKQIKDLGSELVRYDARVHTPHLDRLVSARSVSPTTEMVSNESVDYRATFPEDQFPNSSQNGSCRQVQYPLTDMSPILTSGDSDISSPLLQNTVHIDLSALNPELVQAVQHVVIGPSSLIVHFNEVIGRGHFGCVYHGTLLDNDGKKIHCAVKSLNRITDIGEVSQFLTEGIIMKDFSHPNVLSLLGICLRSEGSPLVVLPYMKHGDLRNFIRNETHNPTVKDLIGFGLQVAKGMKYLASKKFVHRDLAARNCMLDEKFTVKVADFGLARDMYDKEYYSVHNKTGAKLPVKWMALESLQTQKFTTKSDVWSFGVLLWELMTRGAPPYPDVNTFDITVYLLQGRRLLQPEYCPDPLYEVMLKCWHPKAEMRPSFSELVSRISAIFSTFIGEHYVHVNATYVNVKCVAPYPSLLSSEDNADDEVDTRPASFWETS
GSK3-beta, sequence (P49841 whole entry): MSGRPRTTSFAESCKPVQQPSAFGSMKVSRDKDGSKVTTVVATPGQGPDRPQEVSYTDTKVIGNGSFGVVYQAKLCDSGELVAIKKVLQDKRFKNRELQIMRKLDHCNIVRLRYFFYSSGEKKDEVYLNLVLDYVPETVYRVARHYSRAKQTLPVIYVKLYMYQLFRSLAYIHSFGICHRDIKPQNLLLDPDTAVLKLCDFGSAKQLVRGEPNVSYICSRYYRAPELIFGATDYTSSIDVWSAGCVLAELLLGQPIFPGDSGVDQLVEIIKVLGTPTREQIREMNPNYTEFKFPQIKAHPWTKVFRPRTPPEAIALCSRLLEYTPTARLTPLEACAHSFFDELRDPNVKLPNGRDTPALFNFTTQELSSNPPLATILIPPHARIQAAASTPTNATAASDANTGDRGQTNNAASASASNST
Akt1, sequence (P31749 whole entry, species assumed): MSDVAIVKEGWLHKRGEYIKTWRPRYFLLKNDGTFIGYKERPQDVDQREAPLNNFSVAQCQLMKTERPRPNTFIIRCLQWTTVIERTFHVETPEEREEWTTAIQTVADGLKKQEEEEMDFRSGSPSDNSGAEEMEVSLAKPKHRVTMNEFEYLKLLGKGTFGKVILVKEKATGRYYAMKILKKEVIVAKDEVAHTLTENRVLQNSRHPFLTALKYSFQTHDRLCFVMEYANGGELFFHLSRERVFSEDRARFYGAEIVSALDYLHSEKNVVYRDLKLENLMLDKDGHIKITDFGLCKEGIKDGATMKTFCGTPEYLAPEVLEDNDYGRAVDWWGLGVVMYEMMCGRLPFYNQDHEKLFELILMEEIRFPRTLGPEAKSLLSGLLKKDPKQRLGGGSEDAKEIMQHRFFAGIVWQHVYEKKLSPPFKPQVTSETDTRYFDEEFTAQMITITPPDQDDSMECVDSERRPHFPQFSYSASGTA
Lck, sequence (P06239 whole entry): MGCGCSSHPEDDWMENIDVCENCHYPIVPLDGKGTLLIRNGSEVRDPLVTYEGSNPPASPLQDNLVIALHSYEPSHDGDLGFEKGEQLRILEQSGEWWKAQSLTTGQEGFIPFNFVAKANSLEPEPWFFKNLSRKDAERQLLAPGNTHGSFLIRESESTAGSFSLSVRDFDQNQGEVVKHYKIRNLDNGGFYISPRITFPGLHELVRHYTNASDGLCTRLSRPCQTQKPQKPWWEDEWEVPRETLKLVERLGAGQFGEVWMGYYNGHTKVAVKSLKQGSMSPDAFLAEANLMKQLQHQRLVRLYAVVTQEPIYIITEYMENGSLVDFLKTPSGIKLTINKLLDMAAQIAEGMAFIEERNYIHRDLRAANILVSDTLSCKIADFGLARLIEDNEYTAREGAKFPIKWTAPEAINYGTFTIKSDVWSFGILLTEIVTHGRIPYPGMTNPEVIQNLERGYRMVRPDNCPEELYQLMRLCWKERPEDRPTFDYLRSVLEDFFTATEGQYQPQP
EphA1, sequence (P21709 26-976): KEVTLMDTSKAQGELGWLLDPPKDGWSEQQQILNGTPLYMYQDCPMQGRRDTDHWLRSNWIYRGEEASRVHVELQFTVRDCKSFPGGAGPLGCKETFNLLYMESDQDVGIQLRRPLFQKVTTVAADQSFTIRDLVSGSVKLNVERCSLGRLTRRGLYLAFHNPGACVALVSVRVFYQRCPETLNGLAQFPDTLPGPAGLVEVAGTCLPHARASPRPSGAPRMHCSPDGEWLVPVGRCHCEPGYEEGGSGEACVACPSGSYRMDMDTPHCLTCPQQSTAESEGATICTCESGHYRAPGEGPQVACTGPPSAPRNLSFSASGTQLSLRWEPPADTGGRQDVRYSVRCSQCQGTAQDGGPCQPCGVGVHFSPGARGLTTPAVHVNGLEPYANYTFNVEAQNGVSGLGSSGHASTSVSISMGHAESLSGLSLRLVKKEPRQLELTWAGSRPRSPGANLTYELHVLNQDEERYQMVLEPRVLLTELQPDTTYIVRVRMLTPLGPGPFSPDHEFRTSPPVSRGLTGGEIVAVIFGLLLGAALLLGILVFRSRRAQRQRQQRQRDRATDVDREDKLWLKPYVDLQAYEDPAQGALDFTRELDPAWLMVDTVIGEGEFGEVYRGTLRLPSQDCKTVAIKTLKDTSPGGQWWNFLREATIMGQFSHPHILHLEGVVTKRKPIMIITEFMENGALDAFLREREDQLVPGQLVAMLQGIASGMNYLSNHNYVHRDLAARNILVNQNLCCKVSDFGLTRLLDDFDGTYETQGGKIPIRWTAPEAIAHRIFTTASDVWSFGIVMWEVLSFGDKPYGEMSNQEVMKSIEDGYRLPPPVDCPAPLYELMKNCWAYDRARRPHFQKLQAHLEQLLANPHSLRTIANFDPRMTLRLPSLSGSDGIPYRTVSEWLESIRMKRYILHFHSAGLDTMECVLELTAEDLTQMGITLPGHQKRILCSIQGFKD

By IC50 is commonly meant the concentration needed to halve the response being measured. A lower IC50 goes with inhibition by little substance. A word on the inhibition: it is the percentage by which the read-out fell short of the control. Read a low inhibition as a response near the control. On to `CC(C)(C)c1cc(C(=O)N2CCNS(=O)(=O)CC2)c(NC(=O)Nc2ccc(Oc3ccncc3)cc2)s1` [Example 1, 1-(5-tert-Butyl-3-(1,1-dioxo-1λ^6-[1,2,5]thiadiazepane-5-carbonyl)thiophen-2-yl)-3-(4-(pyridin-4-yloxy)phenyl)urea], for which the IC50 with MCF-7 and with U266 was less than 10 µM in each case. For the same molecule, the inhibition at 2 µM on GSK3-beta was 0 to 25%; against Flt3, 76 to 100%; against Akt1, 0 to 25%. In addition, the “% Inhibition at ATP Km,app” value at c-MET is reported as 0-25%.
For the molecule `CC(C)(C)c1cc(C(=O)N2CCNC(=O)C2)c(NC(=O)Nc2ccc(Oc3ccncc3)cc2)s1` [Example 2, 1-(5-tert-Butyl-3-(3-oxo-piperazine-1-carbonyl)thiophen-2-yl)-3-(4-(pyridin-4-yloxy)phenyl)urea], the IC50 in the assay on MCF-7 and with U266 was less than 10 µM each time. The inhibition at 2 µM lay within 0 to 25% against GSK3-beta, 76 to 100% on Flt3 and 0 to 25% against Akt1. The “% Inhibition at ATP Km,app” value on c-MET was 26-50%.
On to `CC(C)(C)c1cc(C(=O)N2CCS(=O)(=O)CC2)c(NC(=O)Nc2ccc(Oc3ccncc3)cc2)s1` [Example 3, 1-[5-tert-Butyl-3-(1,1-dioxo-1λ^6-thiomorpholine-4-carbonyl)thiophen-2-yl]-3-[4-(pyridin-4-yloxy)phenyl]urea], for which the remaining activity at 2 µM fell in the range of 51 to 75% on Lck (40 min, Lck, Human, Rate (μM) 2, read-out: % Control) and 76 to 100% on EphA1. Besides, at Lck (LCK, compound at 2 μm), the “% Inhibition at 2 μm” value is given as 51-75%.
Take `CC(C)(C)c1cc(C(=O)N2CCNC(=O)CC2)c(NC(=O)Nc2ccc(Oc3ccncc3)cc2)s1` [Example 4, 1-(5-tert-Butyl-3-(5-oxo-[1,4]diazepane-1-carbonyl)thiophen-2-yl)-3-(4-(pyridin-4-yloxy)phenyl)urea]: the results for the inhibition at 2 µM on GSK3-beta, against Flt3 and at Akt1 were 0 to 25%, 76 to 100% and 0 to 25%, respectively. Also, the “% Inhibition at ATP Km,app” value on c-MET is 0-25%.
